Read-outs that look alike come from different tables or passages of the source. Marks after values point to notes of the source that are not given here.
Assays:
[1] = test system: human hepatoma HepG2 cells; test: MTT cell viability assay, HepG2; assay type: cell-based; conditions: 48 h, read-out: Cell viability as a percentage of the cells treated with DMSO, HepG2
Procedure, shortened: (§1)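 First, cells are cultured in DMEM with 10% fetal bovine serum. Next, compound is applied at 20 uM or 40 uM. Finally, MTT measures metabolic activity, normalised to DMSO-treated wells as percent viability.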

[2] = test system: human breast cancer MCF7 cells; test: MTT cell viability assay, MCF-7; assay type: cell-based; conditions: 48 h, read-out: Cell viability as a percentage of the cells treated with DMSO, MCF-7
Procedure, shortened: as §1

[3] = test system: db/db mice; test: Hepatic triglyceride, liver histology, serum ALT and ALP in high-fat diet fed db/db mice; assay type: in vivo, mouse; conditions: 10 mg/kg once daily for 10 days; for Serum ALP (U/L): vehicle 129 ± 15; for Serum ALT (U/L): vehicle 377 ± 48, Table 17
Procedure, shortened: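 High-fat diet fed db/db mice aged 8-10 weeks dosed 10 mg/kg compound once daily for 10 days. Liver sections stained with H&E and 0.3% oil red O; hepatic triglyceride measured by tissue assay kit; serum ALP and ALT activities measured by kit.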

[4] = target: T1, FXR ligand binding domain (LBD) (Homo sapiens, UniProt Q96RI1); test: AlphaScreen assay: FXR LBD recruitment of coregulator peptide motifs (SRC2-3, SRC1-2); assay type: biochemical; conditions: Table 2
T1 construct: made in house
T1 sequence (Q96RI1 262-486 limits assumed): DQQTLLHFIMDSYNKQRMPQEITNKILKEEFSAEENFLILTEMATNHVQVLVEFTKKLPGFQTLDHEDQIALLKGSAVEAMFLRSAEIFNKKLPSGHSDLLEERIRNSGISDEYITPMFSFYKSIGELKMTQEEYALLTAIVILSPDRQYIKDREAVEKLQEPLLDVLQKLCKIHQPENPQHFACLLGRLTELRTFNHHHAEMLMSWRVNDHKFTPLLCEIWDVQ

[5] = test system: human cervical carcinoma Hela cells; test: MTT cell viability assay, Hela; assay type: cell-based; conditions: 48 h, read-out: Cell viability as a percentage of the cells treated with DMSO, Hela
Procedure, shortened: as §1

[6] = test system: RA-resistant human colon cancer HCT116 cells; test: MTT cell viability assay, HCT116; assay type: cell-based; conditions: 48 h, read-out: Cell viability as a percentage of the cells treated with DMSO, HCT116; for viability at 20 µM: HCT-116, 20 uM; for viability at 40 µM: HCT-116, 40 uM
Procedure, shortened: as §1

[7] = test system: human colorectal adenocarcinoma HCT15 cells; test: MTT cell viability assay, HCT15; assay type: cell-based; conditions: 48 h, read-out: Cell viability as a percentage of the cells treated with DMSO, HCT15; for viability at 20 µM: HCT-15, 20 uM; for viability at 40 µM: HCT-15, 40 uM
Procedure, shortened: as §1

[8] = target: T2, full-length FXR (Homo sapiens, UniProt Q96RI1); test: Cell-based FXR transactivation, EcRE luciferase reporter in COS-7 cells; conditions: Table 2; for Cell-based FXR transactivation Fold changes by 5 μM compound: positive: induction, minus: repression; for EC50: EcRE luciferase reporter
T2 construct: The cells were co-transfected with plasmids encoding full-length FXR and the cognate luciferase reporter EcRE-Luc; expressed in transfected cells; host or cells: COS-7
T2 sequence (Q96RI1 1-486): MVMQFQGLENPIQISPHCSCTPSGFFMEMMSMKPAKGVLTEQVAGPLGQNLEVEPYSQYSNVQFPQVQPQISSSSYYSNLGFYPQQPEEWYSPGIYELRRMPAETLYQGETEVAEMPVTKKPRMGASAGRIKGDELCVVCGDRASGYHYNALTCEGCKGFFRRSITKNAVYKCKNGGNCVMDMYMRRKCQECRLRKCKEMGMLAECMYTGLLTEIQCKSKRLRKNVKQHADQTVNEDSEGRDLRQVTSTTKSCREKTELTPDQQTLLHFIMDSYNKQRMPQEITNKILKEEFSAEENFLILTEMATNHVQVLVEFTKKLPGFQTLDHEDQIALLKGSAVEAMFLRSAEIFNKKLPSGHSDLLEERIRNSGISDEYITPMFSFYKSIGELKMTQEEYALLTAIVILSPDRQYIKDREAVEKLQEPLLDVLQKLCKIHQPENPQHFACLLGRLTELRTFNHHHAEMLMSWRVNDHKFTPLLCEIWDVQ
Procedure, shortened: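 COS-7 cells were transiently cotransfected with full-length FXR, EcRE-Luc reporter and a renilla control. Ligands were added 5 h after transfection, and cells were harvested 24 h later. Firefly luciferase was normalized to renilla in a dual-luciferase read-out.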

[9] = SRC1-2 peptide, read-out: EC50 (μM) of FXR binding by AlphaScreen assay recruit SRC1-2
[10] = SRC2-3 peptide, read-out: EC50 (μM) of FXR binding by AlphaScreen assay recruit SRC2-3

Structure (SMILES) | viability at 20 µM [1] [%] | viability at 40 µM [1] [%] | viability at 20 µM [2] [%] | viability at 40 µM [2] [%] | Serum ALP (U/L) [3] | Serum ALT (U/L) [3] | EC50 [4, 9] [µM] | EC50 [4, 10] [µM] | viability at 20 µM [5] [%] | viability at 40 µM [5] [%] | viability at 20 µM [6] [%] | viability at 40 µM [6] [%] | viability at 20 µM [7] [%] | viability at 40 µM [7] [%] | Cell-based FXR transactivation Fold changes by 5 μM compound [8] | EC50 [8] [µM]
CC1(C)C2CCC1(C)C(OC(=O)c1ccc(F)c(Br)c1)C2 (centres unmarked) [XD-13, 1,7,7-trimethyl-bicyclo[2.2.1]-heptan-2-yl 3-bromo-4-fluoro-benzoate] | 92 ± 3 | 86 ± 1 | 100 ± 7 | 100 ± 1 | 92 ± 7^c U/L | 135 ± 5^c U/L | < 1 | < 1 | 100 ± 3 | 96 ± 1 | 100 ± 2 | 70 ± 5 | 100 ± 2 | 71 ± 3 | 4 | < 1
Cc1cc(C(=O)OC2CCCCCCC2)ccc1O [XD-17, cyclooctyl 4-hydroxy-3-methylbenzoate] | 87 | 40 ± 1 | 91 ± 9 | 25 | 76 ± 17^a U/L | 185 ± 51^a U/L | < 1 | < 1 | 83 ± 4 | 39 ± 1 | 82 ± 2 | 27 ± 3 | 52 ± 2 | 24 ± 3 | 3 | < 1

Source: patent publication US20180116993A1, “MODULATORS OF FARNESOID X RECEPTOR AND METHODS FOR THE USE THEREOF” (XIAMEN UNIVERSITY, priority 2015, published 2018)
